Assay results published in patent US10597398B2, “Suppression and regeneration promoting effect of low molecular weight compound on cancer and fibrosis” (NATIONAL UNIVERSITY CORPORATION TOTTORI UNIVERSITY, priority 2015, dated 2020).
pIC50: −log10 of the molar value.

Assays:
HuH-7 cells = experiment: Growth inhibitory effect on cancer cells (WST assay), Example 2.3; format: cell-based, human; conditions: HuH-7 cells, WST assay, concentrations 0-50 μM, control 0.1% DMSO
Outline: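 HuH-7 human hepatoma cells seeded at 5×10^3 cells/well, treated after 24 h with compound at 0–50 μM (0.1% DMSO vehicle control), n=3. Viability read by WST (CCK-8) absorbance at 450/600 nm after 60 min at 37 °C, taken 0, 24, 48 and 96 h post-treatment; kit-only blank subtracted.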

[1] = tested on: CD44-positive HuH-7 cells; experiment: Liver cancer model mouse, tumor volume; format: in vivo, mice; conditions: 50 mg/kg IC-2 vs 30 mg/kg 5-FU, intraperitoneally every three days
Experimental: CD44-positive HuH-7 cells were subcutaneously transplanted in mice. Next, the engrafted mice were divided into 3 groups (DMSO group: 5 mice; 5-FU group: 4 mice; and IC-2 group: 4 mice). Then, DMSO was added to prepare 30 mg/kg of 5-FU and 50 mg/kg of IC-2 such that each liquid volume was 100 μL; and 100% DMSO, a solvent for each drug, was used as a control sample. Subsequently, each drug was dosed intraperitoneally every three days. The body weight of each mouse and the long and short diameters of a tumor were measured every three days. The tumor volume was calculated by using the following equation: Tumor volume=Long diameter×(Short diameter)^2×0.5. The volume at Day 0 was used to normalize each tumor volume, and then a graph was created. To fully evaluate a 5-FU effect, the 5-FU dose was set to an amount 2 times the regular amount 15 mg/kg used in research articles. The concentration of IC-2 corresponding to a concentration at which Wnt/β-catenin signaling was inhibited in vitro was calculated. Then, the concentration was doubled to set an IC-2 dose.

[2] = tested on: DLD-1 cells (colon cancer cells); experiment: Growth of colon cancer cells (Cell Counting Kit-8); format: cell-based; conditions: 10 or 50 μM, 48 h
Experimental: DLD-1 cells (colon cancer cells) were cultured on 10-cm cell culture dishes (TPP Techno Plastic Products AG, Trasadingen, Switzerland) by using DMEM under conditions at 5% CO2, 37° C., and 100% humidity. For passage, 70 to 90% confluent cells were washed with PBS(−), and 300 μL of 0.25% Trypsin/1 mM EDTA per 2 mL of PBS(−) was added thereto. The cells were incubated at 37° C. for 5 min and were then detached. After that, 5 mL of DMEM was used to collect the cells. The cells collected were centrifuged at 1000 rpm for 3 min to remove a supernatant. The cells were then suspended in DMEM and were split at a 1:4 ratio.
DLD-1 cells were seeded at 5×10^5 cells/well of a 96-well plate (TPP). After 24 h, the cells were treated with 0, 10, or 50 μM of IC-2. Next, 48 h after the treatment, 100 μL of 10% Cell Counting Kit-8 (DOJINDO LABORATORIES, Kumamoto) was added. The mixture was incubated at 37° C. and its absorbance (at a measurement wavelength of 450 nm/control wavelength of 600 nm) was measured by using a Sunrise Rainbow RC (Tecan Group Ltd., Mannedorf, Switzerland).

| pIC50 (HuH-7 cells) | Structure (SMILES) | anti-malignant tumor therapeutic effect (tumor volume) [1] | growth inhibitory effect on colon cancer cells [2] |
| --- | --- | --- | --- |
| < 4.30 | COc1ccc(COc2ccc(CNC(=O)N3CCC(=O)N4C(Cc5ccccc5)C(=O)N(Cc5cccc6ccccc56)CC34)cc2)cc1 (stereo not drawn) [IC-2-OPMB] | – | – |
| – | O=C1C(Cc2ccccc2)N2C(=O)CCN(C(=O)NCc3ccccc3)C2CN1Cc1cccc2ccccc12 (stereo not drawn) [IC-2] | more remarkable anti-malignant tumor therapeutic effect than 5-FU | elicited a growth inhibitory effect |
